From patent US10816552B2 (The Governing Council of the University of Toronto, priority 2014, dated 2020) come the findings set out here.

Series [1] relates to Jurkat cells. Description: Metabolic toxicity assay (WST-1) in Jurkat cells. The class given is cell-based. The following applies: for LD50 / LD50 (metabolic toxicity): Jurkat cells, 24 hour incubation, WST-1. As for the experimental part:
FIGS. 7A, B and C show a) and b) the cell proliferation rate of HCT116 cells as a function of time in the presence of various concentrations of the exemplary compound, Telox-2 (confluency analysis); and c) the metabolic toxicity of the exemplary compound, Telox-2, in Jurkat cells as measured by reduction of WST-1. Cells were incubated with Telox-2 for 24 hours prior to a 30 minute exposure to WST-1.
A 96 well clear fluorometer plate was loaded with 200 μL of Jurkat cells at a culture density of 1×10^6 cells per mL. To each well was added an appropriate amount of a stock solution of Telox/Telox2 in sterile DMSO to reach a desired concentration of Telox/Telox2 (1-1000 micromole). The concentration of DMSO was 1% in all wells. Cells were allowed to incubate for 24 h at 37° C. under normal atmosphere, after which 20 μL of a commercially available solution of WST-1 in PBS (Roche Diagnostics, product #05015944001) was added to each well (gentle pipetting evenly distributed the reagent throughout the well). Cells were allowed to incubate for a further 0.5 h at 37° C. under normal atmosphere, followed by subsequent measurement of the absorbance of each well at 450 nm using a TECAN Safire 2 plate reader. Data was background corrected vs. wells that contained cell growth media (without cells), an appropriate concentration of Telox2, a final concentration of DMSO=1%, and WST-1. Background correction wells were incubated in the same manner as described for cell-positive wells.
To investigate the organotellurium compounds of study as potential probe moieties for MC, the metabolic toxicity of the compounds was evaluated. Organotellurium compounds are often described as toxic, with aryl telluroethers showing cellular toxicity below 100 μM across a range of cell lines under different assay conditions.^9-11,38,39 The toxicity of compounds 8-11 was investigated in a commonly used Jurkat cell line after a 24 hour incubation using the metabolic probe WST-1 (Roche Diagnostics, Laval, Quebec) as per manufacturer's instructions. As compounds 8, 9 and 10 are expected to show degradation over the time frame of the toxicity assay, based on the NMR stability studies, these experiments show the relative toxicity of the compounds and their resulting degradation products (Table 2). […] The LD50 values of the exemplary organotellurium compounds of the present application provide promise for their use as activity based MC probes since the general MC experiment can be achieved at concentrations of ˜100 μM.^5
Background: Tetrazolium assays rely on reduction of a dye to a coloured formazan, in cell work by metabolically active cells.

Series [2] can be described thus: 1H NMR stability in d-DMSO under dry ambient atmosphere, 24 h. Format: physicochemical. The following applies: for degradation over 24 hours (1H NMR): 24 hr incubation. The procedure:
FIGS. 2A-C show the results of ^1H NMR stability experiments for exemplary compounds 1-11. (A) Compounds 1, 2 and 7. (B) Compounds 3, 4, 5 and 6. (C) Compounds 8, 9, 10 and 11. The organotellurium compounds (˜150 μM) were dissolved in d-DMSO with 1,3,5-trioxane, the secondary internal standard. The compounds were kept in clear glass 20 mL vials. The vials were kept in a moisture free environment for 24 hours with continuous supply of ambient atmosphere dried using a series of bubblers containing phosphoric acid, potassium hydroxide and calcium sulfate. Aliquots were analyzed by ^1H NMR and the organotellurium signals and the d5-H-DMSO peaks were integrated. The ratio between the DMSO and the organotellurium protons at time 0 were taken and normalized to generate a degradation plot. Experimental error was calculated by generating triplicate integration data from each individual preliminary NMR data. This error takes into consideration of integration bias and instrument fluctuations.
The relative chemical stability of the methyl telluroethers (1-4) were quantified using ^1H NMR by integration of the CH3—Te signals with respect to a residual DMSO-d5 internal standard. Samples were prepared in a solution of DMSO-d6 and placed under a slow continuous stream of dry ambient atmosphere in a clear glass desiccator. This setup allowed the compound's stability to be monitored without interference from atmospheric water (FIG. 2).

Series [3] relates to HCT116 cells. As to the kind of experiment: Mass cytometry hypoxia labelling (130Te signal). The class given is cell-based. An excerpt:
FIGS. 4A-E show a schematic representation and density maps and plots. FIG. 4A is a schematic representation of Telox/Telox2 cell labelling for analysis via mass cytometry on a second-generation CyTOF instrument. FIG. 4b) is a density map of signal event length vs. ^130Te signal (arbitrary units). FIG. 4c) is a density plot output from the top-right gate in b) of ^193Ir signal (arbitrary units) vs. ^103Rh signal (arbitrary units). More than 93% of detected events fall in the square gate. FIG. 4d) is a density plot output from the bottom-left gate in b) of ^193Ir signal (arbitrary units) vs. ^103Rh signal (arbitrary units). More than 89% of detected events fall in the square gate. FIG. 4e) is a population histograms of cell ^130Te content (arbitrary units). Oxygen concentrations are listed as numerical percentages, P=Pimonidazole (100 μM). Blue and red histograms are Pimonidazole-negative controls. Orange and green histograms are Pimonidazole- positive competition experiments. Note: warmer colors in density plots indicate higher cell population density.
FIGS. 8A and B show a) the absolute ^130Te signal as a function of concentration as determined by mass cytometry analysis of HCT116 cells incubated with the exemplary compound, Telox-2, for 3 hours in either near-anoxic (˜0% O2), hypoxic (˜1% O2) or normoxic (21% O2) atmosphere; and b) the signal-to-noise (fold-change) representation of the data presented in part a.
FIGS. 9A-D show a) Absolute ^130Te signal as a function of time as determined by mass cytometry analysis of HCT116 cells incubated with 10 μM of the exemplary compound,Telox-2 (constant exposure), in either near-anoxic (˜0% O2), hypoxic (˜1% O2) or normoxic (21% O2) atmosphere; b) the signal-to-noise (fold-change) representation of the data presented in part a; and c) the absolute ^130Te signal as a function of time as determined by mass cytometry analysis of HCT116 cells incubated with 10 μM Telox-2 for 3 hours followed by replacement of Telox-2-containing media with fresh media in either near-anoxic (˜0% O2), hypoxic (˜1% O2) or normoxic (21% O2) atmosphere; and d) the signal-to-noise (fold-change) representation of the data presented in part c.
HCT116 (500,000) cells were seeded in 60 mm plastic petri dishes (Corning Inc., NY) and incubated for 24 h at 37° C., 21% O2/5% CO2. The cells were transferred to hypoxia chambers (H35/H85 hypoxia workstation, Don Whitley Scientific) maintained at 1%/0.2% or <0.02% O2 for 3 h. Hypoxia experiments (<0.02% O2) were performed by seeding the cells in 60 mm glass plates (Corning Inc., NY).
HCT 116 cells (see sections i and ii) were incubated in media containing Telox or Telox2 (100 μM, added as a neat solution in sterile DMSO; final [DMSO]=0.1%) for 3 hours under atmosphere containing an appropriate concentration of O2. Following incubation, the media was removed, cells were washed with sterile PBS, and then separated from the incubation plate via trypsinization (37° C., 10 min) and gentle scraping. The cell suspension was pelleted and resuspended in PBS containing β-ME (1.0 mL, 100 mM). Cells were pelleted, resuspended in PBS (900 μL, no β-ME), and fixed with formaldehyde (100 μL, 37% solution) for 25 minutes. Following fixation, cells were pelleted, resuspended in PBS containing β-ME (1.0 mL, 100 mM), and pelleted once again. Cells were then resuspended in PBS ([…], no β-ME) and incubated with either the Ir-containing nucleic acid intercalator (hypoxic cells) or the Rh containing nucleic acid intercalator (normoxic cells) (10 μL, 100 μM solution in sterile PBS) for 20 minutes. Cells were then pelleted and resuspended in PBS (1.0 mL, no β-ME) twice. Cell pellets were then resuspended in PBS containing ^151/153EU beads (1/10 dilution of CyTOF® calibration beads, DVS Sciences, 1.0-2.5 mL depending on pellet size). The two cells samples were then combined (250 μL of each) and 250 μL of the resultant sample was injected onto a second-generation CyTOF® instrument for MC analysis. […]

A short description of series [4]: Stability of the Telox telluroether (summary statement). Format: physicochemical.
Series [5] can be described thus: NMR degradation in 50/50 d-DMSO/PBS buffer, air and ambient light. Format: physicochemical. The note with it: air, ambient lighting, room temperature. An excerpt: The ^19F NMR of compound 10 and ^1H NMR of compound 11 were taken at shown time points. Compound 10 used trifluoroacetic acid as the internal standard and compound 11 used d5-DMSO.
To further validate these compounds as potential MC mass tags, the degradation was also studied in a buffered aqueous solution by dissolving the compounds in a 50/50 solution of d-DMSO/PBS buffer. The compounds were kept in an environment exposed to air and ambient lighting at room temperature. ^19F NMR was used to study compound 10 using a trifluoroacetic acid internal standard while ^1H NMR was used to study the degradation compound 11 using the d5-DMSO internal standard. […] However, under the same conditions the tellurophene 11 was stable.

Series [6] in a line: Solubility observations. The class given is physicochemical.

Consider `C[Te]CCCC(=O)NCc1ccccc1` [Compound 9, N-benzyl-4-(methyltellanyl)butanamide], for which the LD50 in series [1] turned out to be 180 ± 60 µM. `OCCc1ccc[te]1` [Compound 7, 2-(tellurophen-2-yl)ethan-ol]: the “degradation over 24 hr incubation (1H NMR), in words” value (“degradation over 24 hr incubation” for short) in series [2] is “degraded insignificantly”.

For `C[Te]CCCOC(=O)NCCNC(=O)Cn1ccnc1[N+](=O)[O-]` [Telox], the “detected events in the square gate, top-right (130Te) gate, 193Ir vs 103Rh” value in series [3] (FIG. 4c) is reported as “More than 93%”. The “detected events in the square gate, bottom-left (130Te) gate, 193Ir vs 103Rh” value in series [3] (FIG. 4d) is reported as “More than 89%”. Also, the “metabolic LD50, in words” value in series [1] (Telox, summary statement) is reported as “close to the required assay concentration”. Also, the “stability of telluroether functionality, in words” value in series [4] is “moderate stability”. As for `O=C(CCC[Te]C(F)(F)F)NCc1ccccc1` [Compound 10, N-benzyl-4-((trifluoromethyl)tellanyl)butamide], in series [2], the “degradation over 24 hr incubation” value is given as “stable”. The LD50 in series [1] was 130 ± 20 µM. Moreover, the “degradation after 24 hours in d-DMSO/PBS” value in series [5] (19F NMR) is 60%. For the compound `COC(=O)CC[Te]C` [Compound 3, methyl 3-methyltellanyl-propionate], the “degradation over 24 hours (1H NMR)” value in series [2] was approximately 85%. The same measure, in the same setting: to `COC(=O)CCC[Te]C` [Compound 4, methyl 4-methyltellanyl-butanoate] belongs “approximately 15%”.

As for `C[Te]CCCOC(=O)NCc1ccccc1` [Compound 8], in series [1], the LD50 was 610 ± 290 µM and the “LD50 (metabolic toxicity)” value is 610 µM. In series [6], the “solubility, in words” value is “lack of solubility”. With `COC(=O)CCC[Te]C(F)(F)F` [Compound 5, methyl 4-((trifluoromethyl)tellanyl)butanoate], in series [2], the “degradation over 24 hr incubation” value is given as “no degradation was observed”. Regarding `C[Te]CCCO` [Compound 2, 3-methyltellanyl-1-propanol], the “degradation over 24 hours (1H NMR)” value in series [2] is “approximately 75%”.

For `O=C(O)CCc1ccc[te]1` [Compound 6], the “degradation over 24 hr incubation” value in series [2] is “degraded insignificantly”. Consider `O=C(CCc1ccc[te]1)NCc1ccccc1` [Compound 11, N-benzyl-3-(tellurophen-2-yl)propanamide], for which the “degradation over 24 hr incubation” value in series [2] was “stable”. In series [1], the LD50 is 280 ± 30 µM and the “LD50 (metabolic toxicity)” value was found to be 280 µM. Besides, in series [5] (1H NMR, 24 hours), the “stability in d-DMSO/PBS, in words” value was “stable”.
